This is an account of results in patent US20240390298A1, “CYCLOHEXYL BETA-HYDROXY ALKYL AMINES AND MEDICAL USES THEREOF” (ATROGI AB, priority 2021, published 2024).

Counter-ions that a name gives are not always drawn.

Assay [1] concerns L6-myotubes. Put plainly: Glucose uptake in differentiated L6-myotubes (3H-2-deoxyglucose), compared to isoproterenol. It is filed as cell-based. Particulars: agonist 1×10^−5 M, 50 nM 3H-2-deoxyglucose; for Emax at 10 µM: read-out: Biological example 1: glucose uptake, activity compared to that of isoproterenol. The protocol:
(§1) L6-myoblasts were grown in Dulbecco's Modified Eagle's Medium (DMEM) containing 1 g/L glucose supplemented with 10% fetal bovine serum, 2 mM L-Glutamine, 50 U/mL penicillin, 50 μg/mL streptomycin and 10 mM HEPES. Cells were plated at 1×10^5 cells per mL in 24-well plates. After reaching 90% confluence the cells were grown in medium containing 2% FBS for 7 days where upon cells differentiated into myotubes.
Differentiated L6-myotubes were serum-starved overnight in medium containing 0.5% fatty-acid free BSA and stimulated with an agonist, with a final concentration of 1×10^−5 M. After 1 h 40 min the cells were washed with warm glucose free medium or PBS twice and another portion of agonist was added to the glucose free medium. After 20 min the cells were exposed to 50 nM ^3H-2-deoxyglucose for 10 min before washed with ice cold glucose free medium or PBS three times and lysed with 0.2 M NaOH, 400 μL/well, for 1 h at 60° C. The cell lysate was mixed with 4 mL scintillation buffer (Emulsifier Safe, Perkin Elmer) and the radioactivity was detected in a β-counter (Tri-Carb 4810TR, Perkin Elmer). The activity for each compound is compared to that of isoproterenol.

Assay [2] concerns L6-myotubes. Put plainly: Measurement of intracellular cAMP levels in differentiated L6 cells (alpha screen cAMP kit), compared to isoproterenol. It is filed as cell-based. Particulars: agonist 1×10^−5 M, 15 min; for Emax at 10 µM: Rattus norvegicus, L6, 0.25 h, read-out: Biological example 2: intracellular cAMP levels, activity compared to that of isoproterenol. As to the method: as §1
Differentiated cells were serum-starved overnight and stimulated with an agonist, final concentration 1×10^−5 M, for 15 min in stimulation buffer (HBSS supplemented with 1% BSA, 5 mM HEPES and 1 mM IBMX, pH 7.4). The medium was aspirated and 100 μL of 95% EtOH was added to each well of the 24-well plate and cells were kept at −20° C. overnight. The EtOH was allowed to evaporate and 500 μL of lysis buffer (1% BSA, 5 mM HEPES and 0.3% Tween-20, pH 7.4) was added to each well. The plate was kept at −80° C. for 30 min and then at −20° C. until the day of detection when the samples were thawed. Intracellular cAMP levels were detected using an alpha screen cAMP kit (6760635D from Perkin Elmer). The activity for each compound is compared to that of isoproterenol.
A general note: Changes in cAMP serve as a functional read-out for many G protein-coupled receptors.

As to `CO[C@H]1CC[C@@H](CCCNC[C@H](O)c2cncc(F)c2)CC1` [Example 20, (R)-1-(5-Fluoropyridin-3-yl)-2-((3-((1s,4R)-4-methoxycyclohexyl)propyl)-amino)ethan-1-ol], the “Biological example 1: glucose uptake, activity compared to that of isoproterenol” value in the assay with L6-myotubes [1] was “+ + +”. The Emax at 10 µM with L6-myotubes [2] is under 25%.
The like results for `CC(=O)N[C@H]1CC[C@@H](CC(C)(C)NC[C@H](O)c2cncc(F)c2)CC1` [Example 176, N-((1S,4s)-4-(2-(((R)-2-(5-Fluoropyridin-3-yl)-2-hydroxyethyl)amino)-2-methylpropyl)cyclohexyl)acetamide] were, in that order, “+ + +” and under 25%.
Take `O[C@@H](CNCC[C@H]1CC[C@@H](O)CC1)c1cncc(F)c1` [Example 44, (1S,4s)-4-(2-(((R)-2-(5-Fluoropyridin-3-yl)-2-hydroxyethyl)amino)-ethyl)cyclohexan-1-ol]: the Emax at 10 µM with L6-myotubes [1] is 25 to 50%; in the assay with L6-myotubes [2], under 25%.
On to `Cc1ncccc1[C@@H](O)CNC(C)(C)C[C@H]1CC[C@H](NS(C)(=O)=O)CC1` [Example 146, N-((1R,4r)-4-(2-(((R)-2Hydroxy-2-(2-methylpyridin-3-yl)ethyl)amino)-2-methylpropyl)cyclohexyl)methanesulfonamide dihydrochloride], for which, in the assay with L6-myotubes [1], the “Biological example 1: glucose uptake, activity compared to that of isoproterenol” value is “+ +”. Besides, the Emax at 10 µM in the assay with L6-myotubes [2] is under 25%.
In the case of `CC(C)(NC[C@H](O)c1cccc(F)c1)[C@H]1CC[C@@H](C(=O)O)CC1` [Example 98, (1S,4s)-4-(2-(((R)-2-(3-Fluorophenyl)-2-hydroxyethyl)amino)propan-2-yl)-cyclohexane-1-carboxylic acid], the Emax at 10 µM in the assay on L6-myotubes [1] is 25 to 50%; in the assay with L6-myotubes [2] it was under 25%.
As to `CC(C)(C[C@H]1CC[C@H](O)CC1)NC[C@H](O)c1cccc(F)c1.Cl` [Example 51, (1R,4r)-4-(2-(((R)-2-(3-Fluorophenyl)-2-hydroxyethyl)amino)-2-methylpropyl)cyclohexan-1-ol hydrochloride], the “Biological example 1: glucose uptake, activity compared to that of isoproterenol” value in the assay on L6-myotubes [1] is on record as “+ + +”. Moreover, the Emax at 10 µM in the assay with L6-myotubes [2] is under 25%.
Consider `CC(C)(C[C@H]1CC[C@H](NC(=O)C(F)(F)F)CC1)NC[C@H](O)c1cccc(F)c1.Cl` [Example 157, 2,2,2-Trifluoro-N-((1R,4r)-4-(2-(((R)-2-(3-fluorophenyl)-2-hydroxyethyl)-amino)-2-methylpropyl)cyclohexyl)acetamide hydrochloride], for which, in the assay on L6-myotubes [1], the “Biological example 1: glucose uptake, activity compared to that of isoproterenol” value is “+ + +”. Also, the Emax at 10 µM in the assay on L6-myotubes [2] lay in the range of 25 to 50%.
With `CN(C)C(=O)N[C@H]1CC[C@@H](CC(C)(C)NC[C@H](O)c2cccc(F)c2)CC1` [Example 169, 3-((1S,4s)-4-(2-(((R)-2-(3-Fluorophenyl)-2-hydroxyethyl)amino)-2-methylpropyl)cyclohexyl)-1,1-dimethylurea hydrochloride], in the assay with L6-myotubes [1], the “Biological example 1: glucose uptake, activity compared to that of isoproterenol” value is reported as “+ + +”. In addition, the Emax at 10 µM with L6-myotubes [2] was 25 to 50%.
Consider `O[C@@H](CNCCCC1CCC(OCc2ccccc2)CC1)c1cccc(F)c1` (stereo partly drawn) [Example 53, (R)-2-((3-((1r,4S)-4-(Benzyloxy)cyclohexyl)propyl)amino)-1-(3-fluoro-phenyl)ethan-1-ol], for which the Emax at 10 µM is 25 to 50% with L6-myotubes [1] and under 25% in the assay on L6-myotubes [2].
Turning to `CO[C@H]1CC[C@@H](CCNC[C@H](O)c2cccc(F)c2)CC1` [Example 9, (R)-1-(3-Fluorophenyl)-2-((2-((1s,4S)-4-methoxycyclohexyl)ethyl)amino)-ethan-1-ol], the “Biological example 1: glucose uptake, activity compared to that of isoproterenol” value in the assay with L6-myotubes [1] is given as “+ +”. The Emax at 10 µM with L6-myotubes [2] was under 25%.
The like results for `CC(C)(C[C@H]1CC[C@H](NC(=O)OC(C)(C)C)CC1)NC[C@H](O)c1cccc(C(F)(F)F)n1` [Example 148, tert-Butyl ((1S,4r)-4-(2-(((S)-2-hydroxy-2-(6-(trifluoromethyl)pyridin-2-yl)ethyl)amino)-2-methylpropyl)cyclohexyl)carbamate] were, in that order, “+ + +” and under 25%.
`CN(C)C(=O)N[C@H]1CC[C@H](CC(C)(C)NC[C@H](O)c2cccc(F)c2)CC1.Cl` [Example 158, 3-((1R,4r)-4-(2-(((R)-2-(3-Fluorophenyl)-2-hydroxyethyl)amino)-2-methyl-propyl)cyclohexyl)-1,1-dimethylurea hydrochloride]: in the assay with L6-myotubes [1], the “Biological example 1: glucose uptake, activity compared to that of isoproterenol” value is reported as “+ + +”. In addition, the “Biological example 2: intracellular cAMP levels, activity compared to that of isoproterenol” value in the assay with L6-myotubes [2] was “+ + +”.
As to `CC(=O)N[C@H]1CC[C@@H](CC(C)(C)NC[C@@H](O)c2cccc(C#N)n2)CC1` [Example 137, N-((1S,4s)-4-(2-(((R)-2-(6-Cyanopyridin-2-yl)-2-hydroxyethyl)amino)-2-methylpropyl)cyclohexyl)acetamide], the “Biological example 1: glucose uptake, activity compared to that of isoproterenol” value in the assay with L6-myotubes [1] was “+ +”. Besides, the Emax at 10 µM in the assay with L6-myotubes [2] is under 25%.
Turning to `CC(C)(C[C@H]1CC[C@@H](C(=O)O)CC1)NC[C@H](O)c1cccc(F)c1` [Example 105, (1S,4s)-4-(2-(((R)-2-(3-Fluorophenyl)-2-hydroxyethyl)amino)-2-methylpropyl)cyclohexane-1-carboxylic acid], the Emax at 10 µM is 25 to 50% with L6-myotubes [1] and under 25% with L6-myotubes [2].
With `CN([C@H]1CC[C@@H](CC(C)(C)NC[C@H](O)c2cncc(F)c2)CC1)S(C)(=O)=O.Cl` [Example 185, N-((1S,4s)-4-(2-(((R)-2-(5-Fluoropyridin-3-yl)-2-hydroxyethyl)amino)-2-methylpropyl)cyclohexyl)-N-methylmethanesulfonamide], the “Biological example 1: glucose uptake, activity compared to that of isoproterenol” value with L6-myotubes [1] is recorded as “+ + +”. Moreover, the Emax at 10 µM in the assay on L6-myotubes [2] was under 25%.
On to `O[C@@H](CNC[C@H]1CC[C@H](O)CC1)c1cncc(F)c1` [Example 32, (1R,4r)-4-((((R)-2-(5-Fluoropyridin-3-yl)-2-hydroxyethyl)amino)-methyl)cyclohexan-1-ol], for which the Emax at 10 µM with L6-myotubes [1] and with L6-myotubes [2] was under 25% in each case.
Consider `CO[C@H]1CC[C@@H](CC(C)(C)NC[C@H](O)c2cncc(F)c2)CC1` [Example 14, (R)-1-(5-Fluoropyridin-3-yl)-2-((1-((1s,4S)-4-methoxycyclohexyl)-2-methylpropan-2-yl)amino)ethan-1-ol], for which, in the assay with L6-myotubes [1], the “Biological example 1: glucose uptake, activity compared to that of isoproterenol” value is given as “+ + +”. Further, the Emax at 10 µM in the assay on L6-myotubes [2] was under 25%.
As to `CCOC(=O)CO[C@H]1CC[C@H](C(C)(C)NC[C@H](O)c2cncc(F)c2)CC1` [Example 125, Ethyl 2-(((1R,4r)-4-(2-(((R)-2-(5-fluoropyridin-3-yl)-2-hydroxyethyl)-amino)propan-2-yl)cyclohexyl)oxy)acetate], the “Biological example 1: glucose uptake, activity compared to that of isoproterenol” value in the assay on L6-myotubes [1] was “+ + +”. Also, the Emax at 10 µM with L6-myotubes [2] is under 25%.
The like results for `CCCS(=O)(=O)N[C@H]1CC[C@H](CC(C)(C)NC[C@H](O)c2cccc(F)c2)CC1` [Example 159, N-((1R,4r)-4-(2-(((R)-2-(3-Fluorophenyl)-2-hydroxyethyl)amino)-2-methylpropyl)cyclohexyl)propane-1-sulfonamide hydrochloride] were, in that order, “+ + +” and 25 to 50%.
In the case of `O=C(N[C@H]1CC[C@@H](CNC[C@H](O)c2cncc(F)c2)CC1)c1ccccc1` [Example 76, N-((1S,4s)-4-((((R)-2-(5-Fluoropyridin-3-yl)-2-hydroxyethyl)amino)methyl)-cyclohexyl)benzamide], the “Biological example 1: glucose uptake, activity compared to that of isoproterenol” value in the assay on L6-myotubes [1] is recorded as “+ +”. The Emax at 10 µM in the assay on L6-myotubes [2] is under 25%.
For `CC(C)(C[C@H]1CC[C@@H](NC(=O)OC(C)(C)C)CC1)NC[C@H](O)c1cccc(F)c1` [Example 162, tert-Butyl ((1S,4s)-4-(2-(((R)-2-(3-fluorophenyl)-2-hydroxyethyl)amino)-2-methylpropyl)cyclohexyl)carbamate], in the assay on L6-myotubes [1], the “Biological example 1: glucose uptake, activity compared to that of isoproterenol” value is listed as “+ + +”. Moreover, the Emax at 10 µM with L6-myotubes [2] was under 25%.
In the case of `COC(=O)[C@H]1CC[C@@H](C(C)(C)NC[C@H](O)c2cncc(F)c2)CC1` [Example 96, Methyl (1S,4s)-4-(2-(((R)-2-(5-Fluoropyridin-3-yl)-2-hydroxyethyl)amino)-propan-2-yl)cyclohexane-1-carboxylate], in the assay on L6-myotubes [1], the “Biological example 1: glucose uptake, activity compared to that of isoproterenol” value is recorded as “+ +”.
Consider `COC(=O)[C@H]1CC[C@@H](C(C)(C)NC[C@H](O)c2cccc(F)c2)CC1` [Example 95, Methyl (1S,4s)-4-(2-(((R)-2-(3-Fluorophenyl)-2-hydroxyethyl)amino)-propan-2-yl)cyclohexane-1-carboxylate], for which the “Biological example 1: glucose uptake, activity compared to that of isoproterenol” value with L6-myotubes [1] is “+ + +”.
